Data as given in patent EP0102213A1, “Ethanolamine derivatives, pharmaceutical compositions containing them, and processes for preparing them” (BEECHAM GROUP PLC, priority 1982, dated 1984).
Structures can show the parent of a compound that is named as a salt.

How the values were obtained:
Female CFLP mice = assay: Hypoglycaemic activity: blood glucose after subcutaneous glucose load in fasted mice; type: in vivo; details: 24 h fasted female CFLP mice, glucose 1 g/Kg s.c. 30 min after dosing, 2 hour AUC versus water controls
Experimental: Female CFLP mice, weighing approximately 25 g, were fasted for 24 hours prior to the study. The compounds under study were administered orally as an aqueous solution to each of 6 mice. 30 minutes later a blood sample (10 ul) was obtained from the tail for the analysis of blood glucose. Immediately after taking this blood sample, glucose (lg/Kg body weight) was administered subcutaneously to each mouse. 6 mice were given water as a control. Blood samples were then obtained from each mouse at 30 minute intervals for 120 minutes.
Compounds that produced a significant (P<0.05) reduction of blood glucose, compared with control mice given water, at any time interval, were considered active. The area under the blood glucose curve over the 2 hour period after the administration of the glucose was calculated for each compound and compared with the value for control animals.

right atrium = assay: Cardiac activity: rate of the spontaneously beating isolated right atrium; design: species or system Sprague-Dawley male rats; details: rat right atrium; for Emax: intrinsic activity: maximal effect relative to isoprenaline maximum (isoprenaline = 1), read-out: Rate i.a.; for EC50: Krebs solution 32°C, concentration producing 50% of the compound's own maximum response
Experimental: (§1) Sprague-Dawley male rats (300-400 g) are killed and the right and left atria dissected out independently and mounted on a combined tissue holder/ electrode. The tissues are then immersed in a glass bath containing Krebs solution maintained at 32°C. The rate of the spontaneously beating right atrium (via an isometric transducer and a ratemeter) and the tension of the electrically paced left atrium (via an isometric transducer) are recorded on an Ml9 chart recorder.
(§2) After an initial stabilization period, the tissues are exposed to a maximal concentration of isoprenaline (10-^7M). The tissues are then washed several times until rate and tension return to baseline level. A dose-response curve to the test compound is then carried out.
(§3) Responses to each concentration of test compound are expressed as a percentage of the maximal responses to isoprenaline. Results are given in the form of (a) intrinsic activity (i.a.) (maximal effect of test compound with respect to isoprenaline maximum, i.e. isoprenaline intrinsic activity = 1) and (b) EC50 (the molar concentration at which the test compound produces 50% of its own maximum response).

left atrium = assay: Cardiac activity: tension of the electrically paced isolated left atrium; design: species or system Sprague-Dawley male rats; details: rat left atrium; for Emax: intrinsic activity: maximal effect relative to isoprenaline maximum (isoprenaline = 1), read-out: Tension i.a.; for EC50: electrically paced, Krebs solution 32°C, concentration producing 50% of the compound's own maximum response
Experimental: as §1, §2, §3

genetically obese mice = assay: Anti-obesity activity: carcass lipid after daily oral gavage for 28 days; type: in vivo; details: carcass composition
Experimental: The compounds were administered by oral gavage in water or carboxymethyl-cellulose suspension to genetically obese mice daily for 28 days. At the end of the time the carcass composition was determined.

[1] = 13.4 mg/kg p.o. daily for 28 days

EC50 (right atrium) [µM] | EC50 (left atrium) [µM] | Structure (SMILES) | % Reduction in area under Blood Glucose Curve (Female CFLP mice; 2.5 μmol/Kg orally) [%] | Emax (right atrium) [%] | Emax (left atrium) [%] | g LIPID/MOUSE TREATED (genetically obese mice; [1]) [g] | g LIPID/MOUSE TREATED (genetically obese mice; 11.9 mg/kg p.o. daily for 28 days) [g] | % Reduction in area under Blood Glucose Curve (Female CFLP mice; 12.5 μmol/Kg orally) [%]
 |  | CC(Cc1ccc(OCCN2CCN(Cc3ccccc3)CC2)cc1)NCC(O)c1cccc(C(F)(F)F)c1 (centres unmarked) [Example 1, N-[2-(4-(2-(1-(4-Benzyl)piperazinyl)ethoxy)henyl)-1-methylethyl]-2-hydroxy-2-(3-trifluoromethylphenyl)ethanamine trihydrochloride] | 38 | 0 | 0 |  |  | 
 |  | CC(Cc1ccc(OCCN2CCN(c3ccccc3)CC2)cc1)NCC(O)c1cccc(C(F)(F)F)c1 (centres unmarked) [Example 2, N-[2-(4-(2-(1-(4-Phenyl)piperazinyl)ethoxy)phenyl)-1-methylethyl]-2-hydroxy-2-(3-trifluoromethylphenyl)ethan-amine trihydrobromide] | 64 |  | 0 |  |  | 
 |  | Br.Br.Br.CC(Cc1ccc(OCCN2CCNCC2)cc1)NCC(O)c1cccc(C(F)(F)F)c1 (centres unmarked) [Example 3, N-[2-(4-(2-(1-Piperazinyl)ethoxy)phenyl)-1-methylethyl]-2-hydroxy-2-(3-trifluoromethylphenyl)ethanamine trihydrobromide] | 20 |  |  |  |  | 
0.35 | 14 | CC(Cc1ccc(OCCN2CCN(c3ccccc3)CC2)cc1)NCC(O)c1ccccc1F (centres unmarked) [Example 6, N-[2-(4-(2-(1-(4-Phenyl)piperazinyl)ethox)phenyl)-1-methylethyl]-2-hydroxy-2-(2-fluorophenyl)ethanamine trihydrochloride] |  | 44 | 28 |  |  | 
0.17 |  | CC(Cc1ccc(OCCN2CCN(c3ccccc3)CC2)cc1)NCC(O)c1cccc(Cl)c1F (centres unmarked) [Example 7, N-[2-(4-(2-(1-(4-Phenyl)piperazinyl)ethoxy)phenyl)-1-methylethyl]-2-hydroxy-2-(2-fluoro-3-chlorophenyl)ethanamine trihydrochloride] |  | 35 | 0 |  |  | 
 |  | CC(Cc1ccc(OCCN2CCN(c3cccc(Cl)c3)CC2)cc1)NCC(O)c1cccc(C(F)(F)F)c1 (centres unmarked) [Example 8, N-[2-(4-(2-(1-(4-(3-Chlorophenyl))piperazinyl)ethoxy)-phenyl)-1-methylethyl]-2-hydroxy-2-(3-trifluoromethylphenyl)ethanamine trihydrochloride] |  |  |  | 18.06 |  | 
20 | 27 | CC(Cc1ccc(OCCN2CCN(c3ccc(Cl)cc3)CC2)cc1)NCC(O)c1cccc(C(F)(F)F)c1 (centres unmarked) [Example 10, N-[2-(4-(2-(1-(4-(4-Chlorophenyl))piperazinyl)ethoxy)-phenyl)-1-methylethyl]-2-hydroxy-2-(3-trifluoromethylphenyl)ethanamine trihydrochloride] |  | 86 | 100 |  |  | 
0.035 | 45 | CC(Cc1ccc(OCCN2CCN(c3cccc(C(F)(F)F)c3)CC2)cc1)NCC(O)c1cccc(Cl)c1 (centres unmarked) [Example 13, N-[2-(4-(2-(1-(4-(3-Trifluoromethylphenyl))piperazinyl)-ethoxy)phenyl)-1-methylethyl]-2-hydroxy-2-(3-chlorophenyl) ethanamine trihydrochloride] |  | 7 | 33 | 16.40 |  | 
 |  | COC(CNC(C)Cc1ccc(OCCN2CCN(c3ccccc3)CC2)cc1)c1cccc(Cl)c1 (centres unmarked) [Example 15, N-[2-(4-(2-(1-(4-Phenyl)piperazinyl)ethoxy)phenyl)-1-methylethyl]-2-methoxy-2-(3-chlorophenyl)ethanamine trihydrochloride] |  |  |  |  |  | 47

Structure (SMILES) | EC50 (right atrium) [µM] | EC50 (left atrium) [µM] | % Reduction in area under Blood Glucose Curve (Female CFLP mice; 2.5 μmol/Kg orally) [%] | Emax (right atrium) [%] | Emax (left atrium) [%] | g LIPID/MOUSE TREATED (genetically obese mice; [1]) [g] | g LIPID/MOUSE TREATED (genetically obese mice; 11.9 mg/kg p.o. daily for 28 days) [g] | % Reduction in area under Blood Glucose Curve (Female CFLP mice; 12.5 μmol/Kg orally) [%]
CC(Cc1ccc(OCCN2CCN(c3ccccc3)CC2)cc1)NCC(O)c1ccccc1 (centres unmarked) [Example 5, N-[2-(4-(2-(1-(4-Phenyl)piperazinyl)ethoxy)phenyl)-1-methylethyl]-2-hydroxy-2-phenylethanamine trihydrochloride] | 0.54 | 12 |  | 42 | 67 |  |  | 
CC(Cc1ccc(OCCN2CCN(C)CC2)cc1)NCC(O)c1cccc(C(F)(F)F)c1 (centres unmarked) [Example 14, N-[2-(4-(2-(1-(4-Methyl)piperazinyl)ethoxy)henyl)-1-methylethyl]-2-hydroxy-2-(3-trifluoromethylphenyl) ethanamine trihydrochloride, monohydrate] | 1.7 |  |  | 4 | 0 |  | 18.26 | 
